Test results published in patent US11613532B2, “Compounds active towards nuclear receptors” (NUEVOLUTION A/S, priority 2020, dated 2023).

The molecules below were run on plasma IL-17A (assay: In vivo IL-17A induction in anti-CD3 model in mice). Conditions: male C57BL/6JRj mice, anti-CD3e induced plasma IL-17A, oral gavage twice daily day 0 to day 3, 3 mg/kg.
Experimental: Compounds disclosed herein have also been evaluated in a mouse in vivo pharmacodynamic model (anti-CD3-induced plasma IL-17A).
Male C57BL/6JRj mice (7 week old) were purchased from Janvier Labs and housed at the animal facilities of Almirall throughout the study. Animals were allowed to condition for 5 days in their new environment at 22° C.±2° C., 55%±10% relative humidity and 12 h:12 h light:dark cycles. Animals were housed in polycarbonate cages, with free access to water and non-purified stock diet (2014 Teklad Global 14% Protein Rodent Maintenance Diet, Envigo) during the full course of the studies. […]
Mice were injected intraperitoneally with 7.5 μg of anti-CD3e (Clone 145-2C11 from Pharmingen BD) at 0 h (day 0) and 48 h (day 3) time-points. […] Plasma levels of IL-17A were measured by ELISA (R&D Systems) according to the manufacturer's instruction. Results were calculated as the percentage of reduction of plasma IL-17A versus the difference between non-induced and anti-CD3e induced groups through the formula: inhibition=100*[1−[(x−mean non-induced)/(mean control vehicle−mean non-induced)]]. The IL-17A inhibition for each treatment can be expressed as the mean for each treatment group±S.E.M. Statistical analysis of data were conducted with one-way ANOVA followed by Dunnett's multiple comparisons test when appropriate. […]

Compound	Inhibition of IL-17A (%) at 3 mg/kg [%]
CCN(C[C@H]1CC[C@H](C(F)(F)F)CC1)c1ncnc(NC[C@@]2(O)CCN(CC(N)=O)C[C@@H]2O)c1F (single isomer, unassigned) [AD-6-1, 2-((3R*,4R*)-4-(((6-(ethyl(((1r,4R)-4-(trifluoromethyl)cyclohexyl)methyl)amino)-5-fluoropyrimidin-4-yl)amino)methyl)-3,4-dihydroxypiperidin-1-yl)acetamide]	95

What follows are molecules tested against RORγ (Homo sapiens (Human), UniProt P51449) (assay: RORγ Reporter Assay (Gal4)). Conditions: HEK293 cells co-transfected with RORγ LBD-Gal4 and luciferase reporter; 24 h incubation; absolute IC50.
Type: cell-based
Experimental: The activity of the compounds was evaluated using a RORγ Reporter assay (also referred to as Gal4 assay). The Gal4 and the Th17 assays (another suitable assay) are both cell-based assays monitoring functional activity of the compound assayed. The HEK293 cell line is co-transfected transiently with two plasmids, one with the RORγ ligand-binding domain fused to galactose-responsive transcription factor (Gal4), and the other with the luciferase reporter gene and Gal binding sites (UAS). This construction allows to determine the RORγ activity in a cellular system through the measurement of luminescence. […] Media formulation consisted in DMEM/F-12 medium (Gibco) supplemented with 10% heat inactivated FBS (Sigma-Aldrich), non-essential aminoacids (Sigma-Aldrich), 2 mM Glutamax (Gibco) and 100 U/mL penicillin (Sigma-Aldrich). Dose-response curves with compounds were prepared in 100% DMSO and further diluted […] in culture medium. Compound solutions were added to the plate containing cells (final DMSO concentration of 0.1%) and incubated for 24 h at 37° C. and 5% CO2. Luciferase detection reagent was added to each well, and relative light units (RLUs) were quantified from each assay well using a plate reading luminometer. Values of average RLU±S.D. were computed for all treatment sets, followed by the calculations of percent-reduction of RORγ activity in response to respective test compound. The following formula was used: activity=100*[1−[x test compound/average vehicle where the theoretical minimum reduction (0% reduction).

Sequence of RORγ (P51449 269-508): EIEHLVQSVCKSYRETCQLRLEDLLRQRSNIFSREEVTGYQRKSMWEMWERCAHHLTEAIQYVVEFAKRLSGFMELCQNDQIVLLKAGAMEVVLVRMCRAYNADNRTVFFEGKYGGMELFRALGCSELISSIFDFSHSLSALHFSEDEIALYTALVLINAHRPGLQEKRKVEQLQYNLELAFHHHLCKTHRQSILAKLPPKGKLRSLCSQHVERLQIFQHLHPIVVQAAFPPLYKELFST

Compound	IC50 [nM]
NC(=O)CN1CC[C@@H](CNc2ncnc(N(C[C@H]3CC[C@H](C(F)(F)F)CC3)C3CCC3)c2F)[C@H](O)C1 (racemic) [Example A6-5, 2-((3RS,4RS)-4-(((6-(cyclobutyl(((1r,4R)-4-(trifluoromethyl)cyclohexyl)methyl)amino)-5-fluoropyrimidin-4-yl)amino)methyl)-3-hydroxypiperidin-1-yl)acetamide]	17
CCN(C[C@H]1CC[C@]2(CC1)CC2(F)F)c1ncnc(NC[C@@H]2CCN(CC(N)=O)C[C@H]2O)c1F (relative stereo) [Example A6-1-1-1, rel-2-((3R,4R)-4-(((6-(((1,1-Difluorospiro[2.5]octan-6-yl)methyl)(ethyl)amino)-5-fluoropyrimidin-4-yl)amino)methyl)-3-hydroxypiperidin-1-yl)acetamide]	35
CCN(CC1CCC2(CC1)CC2(F)F)c1ncnc(NC[C@H]2CCN(CC(N)=O)C[C@@H]2O)c1F (relative stereo) [Example A6-1-1-2, rel-2-((3R,4R)-4-(((6-(((1,1-Difluorospiro[2.5]octan-6-yl)methyl)(ethyl)amino)-5-fluoropyrimidin-4-yl)amino)methyl)-3-hydroxypiperidin-1-yl)acetamide]	44
CCN(C[C@H]1CC[C@H](C(F)(F)F)CC1)c1ncnc(NC[C@@]2(O)CCN(CC(N)=O)C[C@@H]2O)c1F (single isomer, unassigned) [AD-6-1, 2-((3R*,4R*)-4-(((6-(ethyl(((1r,4R)-4-(trifluoromethyl)cyclohexyl)methyl)amino)-5-fluoropyrimidin-4-yl)amino)methyl)-3,4-dihydroxypiperidin-1-yl)acetamide]	1.2
CCN(C[C@H]1CC[C@@]2(CC1)CC2(F)F)c1ncnc(NC[C@@H]2CCN(CC(N)=O)C[C@H]2O)c1F (single isomer, unassigned) [Example A6-1-2-1]	49
CCN(CC1CCC2(CC1)COC2)c1ncnc(NC[C@@H]2CCN(CC(N)=O)C[C@H]2O)c1F (single isomer, unassigned) [Example A6-6-1]	690
CCN(CC1CCC2(CC1)COC2)c1ncnc(NC[C@@H]2CCN(CC(N)=O)C[C@H]2O)c1F (single isomer, unassigned) [Example A6-6-2]	980
CCN(CC1(F)CCC(C(F)(F)F)CC1)c1ncnc(NC[C@@H]2CCN(CC(N)=O)C[C@H]2O)c1F (single isomer, unassigned) [Example A6-7-1]	43

The remaining molecules from weak to strong by IC50, led by results:

IC50 [nM]	Compound
69	CCN(CC1(F)CCC(C(F)(F)F)CC1)c1ncnc(NC[C@@H]2CCN(CC(N)=O)C[C@H]2O)c1F (single isomer, unassigned) [Example A6-7-2]
15	CCN(C[C@H]1CC[C@H](C(F)(F)F)CC1)c1ncnc(NC[C@@]2(O)CCN(CC(N)=O)C[C@@H]2O)c1F (single isomer, unassigned) [AD-6-2, 2-((3R*,4R*)-4-(((6-(ethyl(((1r,4R)-4-(trifluoromethyl)cyclohexyl)methyl)amino)-5-fluoropyrimidin-4-yl)amino)methyl)-3,4-dihydroxypiperidin-1-yl)acetamide]
4.3	CCN(C[C@H]1CC[C@H](C(F)(F)F)CC1)c1ncnc2c1ccn2C[C@]1(O)CCN(CC(N)=O)C[C@H]1O (single isomer, unassigned) [BD-5-1-2, 2-((3R*,4R*)-4-((4-(ethyl(((1r,4R)-4-(trifluoromethyl)cyclohexyl)methyl)amino)-7H-pyrrolo[2,3-d]pyrimidin-7-yl)methyl)-3,4-dihydroxypiperidin-1-yl)acetamide]
3.3	CCN(C[C@H]1CC[C@H](C(F)(F)F)CC1)c1ncnc2c1ccn2C[C@]1(O)CCN(CC(N)=O)C[C@H]1O (single isomer, unassigned) [BD-5-1-1, 2-((3R*,4R*)-4-((4-(ethyl(((1r,4R)-4-(trifluoromethyl)cyclohexyl)methyl)amino)-7H-pyrrolo[2,3-d]pyrimidin-7-yl)methyl)-3,4-dihydroxypiperidin-1-yl)acetamide]
